Measurements as given in patent publication US12552775B2, “Compounds and uses thereof” (Foghorn Therapeutics Inc., priority 2020, dated 2026).

Legend:
HiBit-BRM fusion protein = molecular target: T1, HiBit-BRM fusion protein (Homo sapiens, UniProt P51531); assay: HiBiT-BRM cell-based degradation assay (Nano-Glo HiBiT Lytic Detection, 24 h); details: stable HeLa cell line expressing HiBiT-BRM, top dose 30 μM
T1 construct: expressed in transfected cells
Experimental: (§1) Procedure: A stable HeLa cell line expressing HiBiT-BRM was generated. On day 0, 5000 cells were seeded in 40 μL of media into each well of 384-well cell culture plates. On day 1, cells were treated with 120 nL DMSO or 120 nL of 3-fold serially DMSO-diluted compounds (10 points in duplicate with 30 μM as final top dose). Subsequently plates were incubated for 24 h in a standard tissue culture incubator and equilibrated at room temperature for 15 minutes. Nano-Glo HiBiT Lytic Detection System (Promega N3050) reagent was freshly prepared and 20 ul was added to each well. Upon addition of this LgBit-containing reagent, the HiBiT and LgBiT proteins associate to form the luminescent NanoBiT luciferase. The plates were shaken for 10 minutes at room temperature and the bioluminescence read using an EnVision plate reader (PerkinElmer).
(§2) The degradation % was calculated using the following formula: % degradation=100%−100%×(Lumsample−LumLC)/(LumHC−LumLC). DMSO treated cells are employed as High Control (HC) and 2 μM of a known BRM/BRG1 degrader standard treated cells are employed as Low Control (LC).

[1] = molecular target: T2, HiBit-BRG1 fusion protein (Homo sapiens, UniProt P51532); assay: HiBiT-BRG1 cell-based degradation assay (Nano-Glo HiBiT Lytic Detection, 24 h); details: stable HeLa cell line expressing HiBit-BRG1 and LgBit, top dose 30 μM, read-out: BRG1 HiBit Degradation Maximum (%)
T2 construct: expressed in transfected cells
Experimental: as §1
For measurement of BRG1 degradation, a stable HeLa cell line expressing HiBit-BRG1 and LgBit was generated. The same protocol as above was then followed.
as §2

T1 sequence (P51531 whole entry, the tested form may be a part): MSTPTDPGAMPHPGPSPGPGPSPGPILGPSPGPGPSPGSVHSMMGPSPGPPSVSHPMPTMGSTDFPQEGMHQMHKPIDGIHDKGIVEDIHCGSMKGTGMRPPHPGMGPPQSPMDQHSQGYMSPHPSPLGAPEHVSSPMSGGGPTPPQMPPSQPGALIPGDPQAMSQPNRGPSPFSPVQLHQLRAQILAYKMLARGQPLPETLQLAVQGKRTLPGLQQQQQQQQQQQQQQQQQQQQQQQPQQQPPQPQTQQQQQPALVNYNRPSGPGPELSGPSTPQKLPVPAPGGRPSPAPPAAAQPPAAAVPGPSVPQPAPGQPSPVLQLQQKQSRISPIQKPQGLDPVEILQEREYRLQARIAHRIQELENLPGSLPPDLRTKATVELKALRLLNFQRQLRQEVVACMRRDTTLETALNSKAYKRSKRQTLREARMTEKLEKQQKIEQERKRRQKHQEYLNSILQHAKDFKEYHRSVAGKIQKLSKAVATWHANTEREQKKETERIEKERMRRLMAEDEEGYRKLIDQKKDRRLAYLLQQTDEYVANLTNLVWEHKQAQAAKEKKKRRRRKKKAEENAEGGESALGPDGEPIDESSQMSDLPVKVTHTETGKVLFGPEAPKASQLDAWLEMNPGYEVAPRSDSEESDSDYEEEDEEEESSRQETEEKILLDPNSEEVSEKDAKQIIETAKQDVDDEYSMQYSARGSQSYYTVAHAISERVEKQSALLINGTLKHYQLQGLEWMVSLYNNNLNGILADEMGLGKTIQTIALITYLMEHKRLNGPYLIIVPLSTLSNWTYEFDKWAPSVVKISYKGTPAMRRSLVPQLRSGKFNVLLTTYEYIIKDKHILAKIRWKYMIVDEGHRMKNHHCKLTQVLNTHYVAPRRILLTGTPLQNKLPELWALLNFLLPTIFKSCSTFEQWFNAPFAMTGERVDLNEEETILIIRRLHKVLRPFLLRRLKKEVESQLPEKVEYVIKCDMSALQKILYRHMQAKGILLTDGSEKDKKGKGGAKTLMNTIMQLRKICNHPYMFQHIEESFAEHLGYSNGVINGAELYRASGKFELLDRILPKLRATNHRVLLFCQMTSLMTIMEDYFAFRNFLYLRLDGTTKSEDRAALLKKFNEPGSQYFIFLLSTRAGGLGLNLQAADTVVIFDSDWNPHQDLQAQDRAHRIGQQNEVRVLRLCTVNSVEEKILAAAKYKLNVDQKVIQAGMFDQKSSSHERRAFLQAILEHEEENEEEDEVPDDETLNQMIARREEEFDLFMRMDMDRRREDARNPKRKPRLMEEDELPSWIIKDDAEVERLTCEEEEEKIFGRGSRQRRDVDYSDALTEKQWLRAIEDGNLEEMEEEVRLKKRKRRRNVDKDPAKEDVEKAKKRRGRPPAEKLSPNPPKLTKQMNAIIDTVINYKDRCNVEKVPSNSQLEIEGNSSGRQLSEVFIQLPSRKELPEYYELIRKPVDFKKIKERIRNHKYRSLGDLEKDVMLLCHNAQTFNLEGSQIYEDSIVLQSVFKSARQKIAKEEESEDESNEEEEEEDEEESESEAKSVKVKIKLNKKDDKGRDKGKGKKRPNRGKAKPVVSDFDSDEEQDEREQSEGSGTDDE
T2 sequence (P51532 whole entry, the tested form may be a part): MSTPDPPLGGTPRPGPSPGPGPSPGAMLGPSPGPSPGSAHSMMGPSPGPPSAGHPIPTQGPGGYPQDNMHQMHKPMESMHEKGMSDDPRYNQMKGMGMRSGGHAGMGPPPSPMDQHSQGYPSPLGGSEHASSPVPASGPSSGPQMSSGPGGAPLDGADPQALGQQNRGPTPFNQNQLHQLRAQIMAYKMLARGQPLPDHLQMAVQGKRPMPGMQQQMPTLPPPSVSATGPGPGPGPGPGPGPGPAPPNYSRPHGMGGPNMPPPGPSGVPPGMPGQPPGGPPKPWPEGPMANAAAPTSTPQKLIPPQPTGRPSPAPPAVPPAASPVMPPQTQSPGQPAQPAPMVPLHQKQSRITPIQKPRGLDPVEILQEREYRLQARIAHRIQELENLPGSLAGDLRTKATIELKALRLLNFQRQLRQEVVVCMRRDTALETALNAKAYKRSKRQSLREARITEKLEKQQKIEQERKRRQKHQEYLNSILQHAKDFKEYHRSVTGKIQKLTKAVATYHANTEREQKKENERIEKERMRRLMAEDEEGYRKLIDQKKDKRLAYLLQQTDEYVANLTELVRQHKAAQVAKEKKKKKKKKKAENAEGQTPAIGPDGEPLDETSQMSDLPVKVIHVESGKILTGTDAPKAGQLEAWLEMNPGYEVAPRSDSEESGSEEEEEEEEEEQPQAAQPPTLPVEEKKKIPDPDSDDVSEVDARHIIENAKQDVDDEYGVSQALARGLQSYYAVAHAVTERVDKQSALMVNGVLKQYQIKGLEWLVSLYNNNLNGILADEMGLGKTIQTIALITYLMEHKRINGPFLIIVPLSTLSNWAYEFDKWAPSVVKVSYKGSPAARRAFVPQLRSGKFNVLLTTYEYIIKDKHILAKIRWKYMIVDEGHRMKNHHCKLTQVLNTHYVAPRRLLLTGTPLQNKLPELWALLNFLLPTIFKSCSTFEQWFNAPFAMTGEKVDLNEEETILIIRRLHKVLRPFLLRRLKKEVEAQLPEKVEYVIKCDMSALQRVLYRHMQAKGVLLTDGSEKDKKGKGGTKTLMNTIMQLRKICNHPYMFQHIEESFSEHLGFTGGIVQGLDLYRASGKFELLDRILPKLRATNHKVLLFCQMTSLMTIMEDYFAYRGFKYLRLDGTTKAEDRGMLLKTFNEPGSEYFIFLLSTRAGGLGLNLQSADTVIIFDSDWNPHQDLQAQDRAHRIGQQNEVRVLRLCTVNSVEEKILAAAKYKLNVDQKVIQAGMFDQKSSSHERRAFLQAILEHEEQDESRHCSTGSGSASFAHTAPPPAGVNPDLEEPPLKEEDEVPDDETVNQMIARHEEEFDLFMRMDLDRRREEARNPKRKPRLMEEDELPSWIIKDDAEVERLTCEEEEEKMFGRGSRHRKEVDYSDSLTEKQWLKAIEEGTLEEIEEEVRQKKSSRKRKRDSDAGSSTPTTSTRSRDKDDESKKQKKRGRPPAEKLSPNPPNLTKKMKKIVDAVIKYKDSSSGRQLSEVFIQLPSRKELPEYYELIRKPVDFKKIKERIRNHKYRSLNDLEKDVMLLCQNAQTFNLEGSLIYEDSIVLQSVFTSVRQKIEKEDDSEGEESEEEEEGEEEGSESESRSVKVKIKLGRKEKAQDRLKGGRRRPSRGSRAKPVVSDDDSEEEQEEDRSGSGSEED

Compound | Dmax [1] [%] | BRM HiBit Degradation Maximum (%) (HiBit-BRM fusion protein)
Cc1ncsc1-c1ccc(CNC(=O)[C@@H]2C[C@@H](O)CN2C(=O)[C@@H](NC(=O)CCCC(=O)NCC23CC(COc4cc(-c5ccccc5O)nnc4N)(C2)C3)C(C)(C)C)cc1 [Compound 37, N1-((3-(((3-amino-6-(2-hydroxyphenyl)pyridazin-4-yl)oxy)methyl)bicyclo[1.1.1]pentan-1-yl)methyl)-N5-((S)-1-((2S,4R)-4-hydroxy-2-((4-(4-methylthiazol-5-yl)benzyl)carbamoyl)pyrrolidin-1-yl)-3,3-dimethyl-1-oxobutan-2-yl)glutaramide] | < 50 | C (“C” indicates maximum degradation < 50%)
Cc1ncsc1-c1ccc(CNC(=O)[C@@H]2C[C@@H](O)CN2C(=O)[C@@H](NC(=O)CCCCC(=O)NC23CC(CCOc4cc(-c5ccccc5O)nnc4N)(C2)C3)C(C)(C)C)cc1 [Compound 43, N1-(3-(2-((3-amino-6-(2-hydroxyphenyl)pyridazin-4-yl)oxy)ethyl)bicyclo[1.1.1]pentan-1-yl)-N6-((S)-1-((2S,4R)-4-hydroxy-2-((4-(4-methylthiazol-5-yl)benzyl)carbamoyl)pyrrolidin-1-yl)-3,3-dimethyl-1-oxobutan-2-yl)adipamide] | > 75 | A (“A” indicates maximum degradation ≥ 75%)
Cc1ncsc1-c1ccc(CNC(=O)[C@@H]2C[C@@H](O)CN2C(=O)[C@@H](NC(=O)COCCOCCNC(=O)C23CC(COc4cc(-c5ccccc5O)nnc4N)(C2)C3)C(C)(C)C)cc1 [Compound 68, (2S,4R)-1-((S)-1-(3-(((3-amino-6-(2-hydroxyphenyl)pyridazin-4-yl)oxy)methyl)bicyclo[1.1.1]pentan-1-yl)-12-(tert-butyl)-1,10-dioxo-5,8-dioxa-2,11-diazatridecan-13-oyl)-4-hydroxy-N-(4-(4-methylthiazol-5-yl)benzyl)pyrrolidine-2-carboxamide; formic acid] | < 50 | C (“C” indicates maximum degradation < 50%)
Nc1nnc(-c2ccccc2O)cc1OCC12CC(CNC(=O)CCCCCCOc3cccc4c3C(=O)N(C3CCC(=O)NC3=O)C4=O)(C1)C2 (centres unmarked) [Compound 4, N-[[3-([[3-amino-6-(2-hydroxyphenyl)pyridazin-4-yl]oxy]methyl)bicyclo[1.1.1]pentan-1-yl]methyl]-7-[[2-(2,6-dioxopiperidin-3-yl)-1,3-dioxoisoindol-4-yl]oxy]heptanamide] | < 50 | C (“C” indicates maximum degradation < 50%)
Cc1ncsc1-c1ccc(CNC(=O)[C@@H]2C[C@@H](O)CN2C(=O)[C@@H](NC(=O)CCCCCCCCCCCCCCC(=O)NC23CC(CCOc4cc(-c5ccccc5O)nnc4N)(C2)C3)C(C)(C)C)cc1 [Compound 50, N1-(3-(2-((3-amino-6-(2-hydroxyphenyl)pyridazin-4-yl)oxy)ethyl)bicyclo[1.1.1]pentan-1-yl)-N16-((S)-1-((2S,4R)-4-hydroxy-2-((4-(4-methylthiazol-5-yl)benzyl)carbamoyl)pyrrolidin-1-yl)-3,3-dimethyl-1-oxobutan-2-yl)hexadecanediamide; formic acid] | < 50 | B (“B” indicates maximum degradation ≥ 50%)
Nc1nnc(-c2ccccc2O)cc1OCC12CC(CNC(=O)CCCCCCCCCCNc3cccc4c3C(=O)N(C3CCC(=O)NC3=O)C4=O)(C1)C2 (centres unmarked) [Compound 8, N-[[3-([[3-amino-6-(2-hydroxyphenyl)pyridazin-4-yl]oxy]methyl)bicyclo[1.1.1]pentan-1-yl]methyl]-11-[[2-(2,6-dioxopiperidin-3-yl)-1,3-dioxoisoindol-4-yl]amino]undecanamide] | < 50 | C (“C” indicates maximum degradation < 50%)
Nc1nnc(-c2ccccc2O)cc1OCC12CC(C(=O)NCCOCCOCCNc3cccc4c3CN(C3CCC(=O)NC3=O)C4=O)(C1)C2 (centres unmarked) [Compound 60, 3-(((3-amino-6-(2-hydroxyphenyl)pyridazin-4-yl)oxy)methyl)-N-(2-(2-(2-((2-(2,6-dioxopiperidin-3-yl)-1-oxoisoindolin-4-yl)amino)ethoxy)ethoxy)ethyl)bicyclo[1.1.1]pentane-1-carboxamide] | < 50 | C (“C” indicates maximum degradation < 50%)
Nc1nnc(-c2ccccc2O)cc1OCC12CC(C(=O)N3CCN(CC4CN(c5ccc6c(c5)C(=O)N(C5CCC(=O)NC5=O)C6=O)C4)CC3)(C1)C2 (centres unmarked) [Compound 102, 5-(3-((4-(3-(((3-amino-6-(2-hydroxyphenyl)pyridazin-4-yl)oxy)methyl)bicyclo[1.1.1]pentane-1-carbonyl)piperazin-1-yl)methyl)azetidin-1-yl)-2-(2,6-dioxopiperidin-3-yl)isoindoline-1,3-dione] | < 50 | B (“B” indicates maximum degradation ≥ 50%)
Nc1nnc(-c2ccccc2O)cc1OCC12CC(C(=O)NCCCCCCCCNc3cccc4c3CN(C3CCC(=O)NC3=O)C4=O)(C1)C2 (centres unmarked) [Compound 58, 3-(((3-amino-6-(2-hydroxyphenyl)pyridazin-4-yl)oxy)methyl)-N-(8-((2-(2,6-dioxopiperidin-3-yl)-1-oxoisoindolin-4-yl)amino)octyl)bicyclo[1.1.1]pentane-1-carboxamide] | < 50 | C (“C” indicates maximum degradation < 50%)
Nc1nnc(-c2ccccc2O)cc1OCCC12CC(NC(=O)CCCOc3cccc4c3C(=O)N(C3CCC(=O)NC3=O)C4=O)(C1)C2 (centres unmarked) [Compound 18, N-(3-(2-((3-amino-6-(2-hydroxyphenyl)pyridazin-4-yl)oxy)ethyl)bicyclo[1.1.1]pentan-1-yl)-4-((2-(2,6-dioxopiperidin-3-yl)-1,3-dioxoisoindolin-4-yl)oxy)butanamide] | < 50 | C (“C” indicates maximum degradation < 50%)

Now from value to compound, other results behind:

Dmax [1] [%] | Compound | BRM HiBit Degradation Maximum (%) (HiBit-BRM fusion protein)
< 50 | Nc1nnc(-c2ccccc2O)cc1OCC12CC(C(=O)N3CCN(CCOc4ccc5c(c4)C(=O)N(C4CCC(=O)NC4=O)C5=O)CC3)(C1)C2 (centres unmarked) [Compound 103, 5-(2-(4-(3-(((3-amino-6-(2-hydroxyphenyl)pyridazin-4-yl)oxy)methyl)bicyclo[1.1.1]pentane-1-carbonyl)piperazin-1-yl)ethoxy)-2-(2,6-dioxopiperidin-3-yl)isoindoline-1,3-dione; formic acid] | C (“C” indicates maximum degradation < 50%)
< 50 | Nc1nnc(-c2ccccc2O)cc1OCC12CC(C(=O)NCCOCCOCCNc3ccc4c(c3)C(=O)N(C3CCC(=O)NC3=O)C4=O)(C1)C2 (centres unmarked) [Compound 66, 3-(((3-amino-6-(2-hydroxyphenyl)pyridazin-4-yl)oxy)methyl)-N-(2-(2-(2-((2-(2,6-dioxopiperidin-3-yl)-1,3-dioxoisoindolin-5-yl)amino)ethoxy)ethoxy)ethyl)bicyclo[1.1.1]pentane-1-carboxamide] | C (“C” indicates maximum degradation < 50%)
< 50 | Nc1nnc(-c2ccccc2O)cc1OCC12CC(C(=O)NCCOc3ccc4c(c3)C(=O)N(C3CCC(=O)NC3=O)C4=O)(C1)C2 (centres unmarked) [Compound 55, 3-(((3-amino-6-(2-hydroxyphenyl)pyridazin-4-yl)oxy)methyl)-N-(2-((2-(2,6-dioxopiperidin-3-yl)-1,3-dioxoisoindolin-5-yl)oxy)ethyl)bicyclo[1.1.1]pentane-1-carboxamide] | C (“C” indicates maximum degradation < 50%)
< 50 | Nc1nnc(-c2ccccc2O)cc1OCC12CC(C(=O)N3CCN(CCCCCOc4ccc5c(c4)C(=O)N(C4CCC(=O)NC4=O)C5=O)CC3)(C1)C2 (centres unmarked) [Compound 99, 5-((5-(4-(3-(((3-amino-6-(2-hydroxyphenyl)pyridazin-4-yl)oxy)methyl)bicyclo[1.1.1]pentane-1-carbonyl)piperazin-1-yl)pentyl)oxy)-2-(2,6-dioxopiperidin-3-yl)isoindoline-1,3-dione; formic acid] | C (“C” indicates maximum degradation < 50%)
< 50 | CN(CCNC(=O)C12CC(COc3cc(-c4ccccc4O)nnc3N)(C1)C2)CCOCCOc1cccc2c1C(=O)N(C1CCC(=O)NC1=O)C2=O (centres unmarked) [Compound 79, 3-(((3-amino-6-(2-hydroxyphenyl)pyridazin-4-yl)oxy)methyl)-N-(2-((2-(2-((2-(2,6-dioxopiperidin-3-yl)-1,3-dioxoisoindolin-4-yl)oxy)ethoxy)ethyl)(methyl)amino)ethyl)bicyclo[1.1.1]pentane-1-carboxamide] | C (“C” indicates maximum degradation < 50%)
< 50 | Nc1nnc(-c2ccccc2O)cc1OCC12CC(C(=O)N3CC4(CCN(CCCNc5ccc6c(c5)C(=O)N(C5CCC(=O)NC5=O)C6=O)CC4)C3)(C1)C2 (centres unmarked) [Compound 98, 5-((3-(2-(3-(((3-amino-6-(2-hydroxyphenyl)pyridazin-4-yl)oxy)methyl)bicyclo[1.1.1]pentane-1-carbonyl)-2,7-diazaspiro[3.5]nonan-7-yl)propyl)amino)-2-(2,6-dioxopiperidin-3-yl)isoindoline-1,3-dione; formic acid] | B (“B” indicates maximum degradation ≥ 50%)
